Data as given in US20120122931A1, “INDOLE DERIVATIVE OR PHARMACEUTICALLY ACCEPTABLE SALT THEREOF” (KISSEI PHARMACEUTICAL CO., LTD., priority 2009, published 2012).

biological target: T1, rat EP1 receptor (Rattus norvegicus, UniProt P70597); test: Test for confirmation of EP1 receptor antagonism: inhibition of prostaglandin E2-induced increase in intracellular calcium concentration (Method A or Method B); assay type: cell-based; conditions: Method B (Calcium kit II Fluo 4, FDSS 7000); rat EP1 receptor-expressing cells; prostaglandin E2 10 nM
T1 construct: expressed in transfected cells; host or cells: COS-1 cells, transient transfection with Lipofectamine 2000
T1 sequence (P70597 1-405): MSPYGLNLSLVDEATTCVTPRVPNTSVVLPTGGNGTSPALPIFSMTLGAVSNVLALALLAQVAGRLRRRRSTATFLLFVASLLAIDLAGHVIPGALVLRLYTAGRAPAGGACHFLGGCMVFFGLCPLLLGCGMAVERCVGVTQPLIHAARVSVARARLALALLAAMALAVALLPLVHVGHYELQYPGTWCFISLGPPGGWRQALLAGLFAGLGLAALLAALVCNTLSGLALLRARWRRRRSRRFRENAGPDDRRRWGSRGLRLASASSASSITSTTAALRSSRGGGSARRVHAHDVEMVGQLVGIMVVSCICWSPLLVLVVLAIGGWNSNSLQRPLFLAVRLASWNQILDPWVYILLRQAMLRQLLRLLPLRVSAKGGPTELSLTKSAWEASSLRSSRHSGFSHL
Experimental: (1) Preparation of Rat EP1 Expression vector
Using Rat Kidney BD Marathon-Ready cDNA (Nippon Becton Dickinson Company, Ltd.) as a template, a forward primer shown in SEQ ID NO. 1, and a reverse primer shown in SEQ ID NO. 2, a first run of PCR was carried out using KOD-Plus-Ver 2.0 (Toyobo Co., Ltd.). Further, using this amplification product as a template, a forward primer shown in SEQ ID NO. 3, and a reverse primer shown in SEQ ID NO. 4, a second run of PCR was carried out in the same manner. The amplification product obtained by the second run of PCR was incorporated into a vector (pcDNA3.1 D/V5-His-TOPO (registered trademark), Invitrogen Japan K. K.). By a conventional method, the vector containing this amplification product was introduced to E. coli (One Shot TOP10 Competent Cells, Invitrogen Corporation) to transform. This transformed E. coli was cultured in an LB agar medium for one day. After the culture, colonies were selected and cultured in an LB liquid medium containing 50 μg/mL of ampicillin. After the culture, the vector was purified using a QIAprep Spin Miniprep Kit (Qiagen K. K.). The base sequence of the insertion site of this vector (SEQ ID NO. 5) was compared with the rat EP1 base sequence (Ptger1) registered as an accession number NM_013100 in well-known database (NCBI), and as a result, they all matched except for a single base. Further, the amino acid sequence translated by the base sequence completely matched the amino acid sequence of the rat EP1 receptor registered as an NCBI accession number NP_037232. Therefore, it was confirmed that the cloned gene sequence was a base sequence of the rat EP1 receptor and the obtained amino acid sequence was that of the rat EP1 receptor. The pcDNA3.1 D/V5-His-TOPO (registered trademark) to which the nucleic acid shown in SEQ ID NO. 5 had been inserted was taken as a rat EP1-expressing vector.
(2) Preparation of Rat EP1 Receptor-Expressing Cells
COS-1 cells (Dainippon Sumitomo Pharma Co., Ltd.) were cultured until it reached confluence in an incubator at 37° C. under a 5% CO2 gas condition, using a D-MEM liquid medium (high glucose and L-glutamine contained, Invitrogen Corporation) to which a penicillin-streptomycin solution (Invitrogen Corporation, final concentration: 100 U/mL as benzylpenicillin; 100 μg/mL as streptomycin) as an antibiotic, MEM nonessential amino acids (Invitrogen Corporation, final Concentration: 0.1 mM), and fetal calf serum (Sanko Junyaku Co., Ltd., final concentration: 10%) were added.
(2-2) COS-1 Cell Subculture
The cells that had reached confluence were stripped with 0.05% trypsin/0.53 mM EDTA 4Na (Invitrogen Japan K. K.) and resuspended in the above liquid medium. The resuspended cells were diluted and cultured in the above liquid medium at a spread ratio from 1:4 to 1:8.
(2-3) Preparation of Cells for Introduction of Rat EP1-Expressing Vector
The cells that had reached confluence were stripped with 0.05% trypsin/0.53 mM EDTA.4Na, and resuspended in a D-MEM liquid medium (high glucose and L-glutamine contained, Invitrogen Corporation) to which an MEM nonessential amino acid (final concentration: 0.1 mM) and fetal calf serum (final concentration: 10%) were added. In each well of a Poly D-lysine-coated 96-well microplate (BD BioCoat (registered trademark), Nippon Becton Dickinson Company, Ltd.), this resuspended cell suspension culture was prepared to be 5×10^4 cells/well in 100 μL of the liquid medium, and seeded thereon. After seeding, the cells were cultured in an incubator at 37° C. under a 5% CO2 gas condition. At a point when the cells for introduction of a rat EP1-expressing vector were adhered (about 2 hours after seeding), introduction of the rat EP1-expressing vector was carried out in the following order.
(2-4) Introduction of Rat EP1-Expressing Vector
For introduction of the rat EP1-expressing vector, Lipofectamine 2000 (Invitrogen Japan K. K.) was used. […]

Structure (SMILES) | IC50 [nM]
O=C(O)c1cccc(Cc2c(-c3ccccc3)[nH]c3cc(Br)ccc23)n1 [Example 16-38] | 36
O=C(O)c1cccc(Cc2c(-c3ccccc3)[nH]c3cc(C(F)(F)F)c(F)cc23)n1 [Example 16-45] | 26
Cc1ccc2c(Cc3cccc(C(=O)O)n3)c(-c3ccc(F)cc3)[nH]c2c1 [Example 16-48, 6-[2-(4-fluorophenyl)-6-methyl-1H-indol-3-ylmethyl]pyridine-2-carboxylic acid] | 27
O=C(O)c1cccc(Cc2c(-c3ccsc3)[nH]c3cc(Cl)c(F)cc23)n1 [Example 16-52, 6-(6-chloro-5-fluoro-2-thiophen-3-yl-1H-indol-3-ylmethyl)pyridine-2-carboxylic acid] | 43
Cc1cc2[nH]c(-c3ccccc3)c(Cc3cccc(C(=O)O)n3)c2cc1F [Example 16-53, 6-(5-fluoro-6-methyl-2-phenyl-1H-indol-3-ylmethyl)pyridine-2-carboxylic acid] | 31
Cc1cc2[nH]c(-c3ccc(F)cc3)c(Cc3cccc(C(=O)O)n3)c2cc1F [Example 16-54, 6-[5-fluoro-2-(4-fluorophenyl)-6-methyl-1H-indol-3-ylmethyl]pyridine-2-carboxylic acid] | 47
Cc1cc2[nH]c(-c3ccsc3)c(Cc3cccc(C(=O)O)n3)c2cc1F [Example 16-56, 6-(5-fluoro-6-methyl-2-thiophen-3-yl-1H-indol-3-ylmethyl)pyridine-2-carboxylic acid] | 39
Cc1cc2[nH]c(-c3cccnc3)c(Cc3cccc(C(=O)O)n3)c2cc1C [Example 16-58, 6-(5,6-dimethyl-2-pyridin-3-yl-1H-indol-3-ylmethyl)pyridine-2-carboxylic acid] | 38
CCOc1ccc2c(Cc3cccc(C(=O)O)n3)c(-c3ccc(F)cc3)[nH]c2c1 [Example 16-60, 6-[6-ethoxy-2-(4-fluorophenyl)-1H-indol-3-ylmethyl]pyridine-2-carboxylic acid] | 32
CCOc1ccc2c(Cc3cccc(C(=O)O)n3)c(-c3ccsc3)[nH]c2c1 [Example 16-61, 6-(6-ethoxy-2-thiophen-3-yl-1H-indol-3-ylmethyl)pyridine-2-carboxylic acid] | 43
O=C(O)c1cccc(Cc2c(-c3ccc(F)cc3)[nH]c3cc(C4CC4)ccc23)n1 [Example 16-62, 6-[6-cyclopropyl-2-(4-fluorophenyl)-1H-indol-3-ylmethyl]pyridine-2-carboxylic acid] | 27
COc1cc2[nH]c(-c3cccnc3)c(Cc3cccc(C(=O)O)n3)c2cc1C [Example 16-66, 6-(6-methoxy-5-methyl-2-pyridin-3-yl-1H-indol-3-ylmethyl)pyridine-2-carboxylic acid] | 30
O=C(O)c1cccc(Cc2c(-c3cccnc3)[nH]c3cc(C4CC4)ccc23)n1 [Example 16-67, 6-(6-cyclopropyl-2-pyridine-3-yl-1H-indol-3-ylmethyl)pyridine-2-carboxylic acid] | 22
O=C(O)c1cccc(Cc2c(-c3ccccc3)[nH]c3cc(C4CC4)c(F)cc23)n1 [Example 16-68, 6-(6-cyclopropyl-5-fluoro-2-phenyl-1H-indol-3-ylmethyl)pyridine-2-carboxylic acid] | 34
O=C(O)c1cccc(Cc2c(-c3ccccc3)[nH]c3cc(OC(F)F)ccc23)n1 [Example 16-73] | 23
O=C(O)c1cccc(Cc2c(-c3ccc(F)cc3)[nH]c3cc(C4CC4)c(F)cc23)n1 [Example 16-74, 6-[6-cyclopropyl-5-fluoro-2-(4-fluorophenyl)-1H-indol-3-ylmethyl]pyridine-2-carboxylic acid] | 47
COc1cc2c(Cc3cccc(C(=O)O)n3)c(-c3ccccc3)[nH]c2cc1C [Example 16-78, 6-(5-methoxy-6-methyl-2-phenyl-1H-indol-3-ylmethyl)pyridine-2-carboxylic acid] | 24
CCOc1cc2[nH]c(-c3ccsc3)c(Cc3cccc(C(=O)O)n3)c2cc1F [Example 16-79, 6-(6-ethoxy-5-fluoro-2-thiophen-3-yl-1H-indol-3-ylmethyl)pyridine-2-carboxylic acid] | 22
COc1cc2[nH]c(C(C)(C)C)c(Cc3cccc(C(=O)O)n3)c2cc1Cl [Example 16-89, 6-(2-tert-butyl-5-chloro-6-methoxy-1H-indol-3-ylmethyl)pyridine-2-carboxylic acid] | 22
Cc1cc2c(Cc3cccc(C(=O)O)n3)c(-c3ccsc3)[nH]c2cc1Cl [Example 16-92, 6-(6-chloro-5-methyl-2-thiophen-3-yl-1H-indol-3-ylmethyl)pyridine-2-carboxylic acid] | 30

The next molecules have a lower IC50 than those just listed; values first:

IC50 [nM] | Structure (SMILES)
20 | O=C(O)c1cccc(Cc2c(-c3cccnc3)[nH]c3cc(C4CC4)c(F)cc23)n1 [Example 16-76, 6-(6-cyclopropyl-5-fluoro-2-pyridine-3-yl-1H-indol-3-ylmethyl)pyridine-2-carboxylic acid]
19 | Cc1cc2c(Cc3cccc(C(=O)O)n3)c(-c3ccccc3)[nH]c2cc1Cl [Example 16-59, 6-(6-chloro-5-methyl-2-phenyl-1H-indol-3-ylmethyl)pyridine-2-carboxylic acid]
18 | COc1cc2[nH]c(-c3ccc(F)cc3)c(Cc3cccc(C(=O)O)n3)c2cc1C [Example 16-85, 6-[2-(4-fluorophenyl)-6-methoxy-5-methyl-1H-indol-3-ylmethyl]pyridine-2-carboxylic acid]
18 | COc1cc2c(Cc3cccc(C(=O)O)n3)c(-c3ccsc3)[nH]c2cc1Cl [Example 16-86, 6-(6-chloro-5-methoxy-2-thiophen-3-yl-1H-indol-3-ylmethyl)pyridine-2-carboxylic acid]
17 | CCOc1cc2[nH]c(-c3ccccc3)c(Cc3cccc(C(=O)O)n3)c2cc1C [Example 16-84, 6-(6-ethoxy-5-methyl-2-phenyl-1H-indol-3-ylmethyl)pyridine-2-carboxylic acid]
16 | O=C(O)c1cccc(Cc2c(-c3ccsc3)[nH]c3cc(C4CC4)c(F)cc23)n1 [Example 16-75, 6-(6-cyclopropyl-5-fluoro-2-thiophen-3-yl-1H-indol-3-ylmethyl)pyridine-2-carboxylic acid]
14 | Cc1cc2[nH]c(-c3ccsc3)c(Cc3cccc(C(=O)O)n3)c2cc1C [Example 16-51, 6-(5,6-dimethyl-2-thiophen-3-yl-1H-indol-3-ylmethyl)pyridine-2-carboxylic acid]
14 | O=C(O)c1cccc(Cc2c(-c3ccsc3)[nH]c3cc(C4CC4)ccc23)n1 [Example 16-65, 6-(6-cyclopropyl-2-thiophen-3-yl-1H-indol-3-ylmethyl)pyridine-2-carboxylic acid]
11 | Cc1cc2[nH]c(-c3ccccc3)c(Cc3cccc(C(=O)O)n3)c2cc1C [Example 16-44, 6-(5,6-dimethyl-2-phenyl-1H-indol-3-ylmethyl)pyridine-2-carboxylic acid]
